Twelve compounds from ChEMBL document CHEMBL1155069, “Beta-ketophosphonates as beta-lactamase inhibitors: Intramolecular cooperativity between the hydrophobic subsites of a class D beta-lactamase” (Bioorg Med Chem, 2008) can be followed below.

Assay [1] in a line: Inhibition of Escherichia coli OXA1 class D beta-lactamase by spectrophotometry.
A short description of assay [2]: Inhibition of Escherichia coli OXA10 class D beta-lactamase by spectrophotometry.
Assay [3] in a line: Inhibition of Escherichia coli TEM2 class A beta-lactamase by spectrophotometry.
A short description of assay [4]: Inhibition of Enterobacter cloacae P99 class C beta-lactamase by spectrophotometry.

pKi: −log10 of the molar value.

In the case of `O=C(CP(=O)(O)OCc1ccc(-c2ccccc2)cc1)c1ccccc1`, the pKi (in general, −log10 of the Ki, conventionally taken in molar units) is 3.70 in assay [1] and less than 3.00 in assay [2].

Regarding `Cc1onc(-c2ccccc2Cl)c1C(=O)CP(=O)(O)OCc1ccccc1`, the pKi in assay [1] was 3.37; in assay [3], less than 3.00; in assay [4], less than 3.00.

In the case of `O=P(O)(CC(O)c1ccccc1)OCc1ccccc1` (racemic), the pKi in assay [1] is 3.36; in assay [3], less than 3.00; in assay [4], 2.97.

Turning to `O=C(CP(=O)(O)OCc1ccccc1)c1ccc(-c2ccccc2)cc1`, the negative-log Ki (pKi) is 3.64 in assay [1], less than 3.00 in assay [3], less than 3.00 in assay [2] and 3.72 in assay [4].

For `O=C(CP(=O)(O)OCc1ccccc1)c1ccc2[nH]c(=O)oc2c1`, the pKi in assay [1] was 3.57; in assay [3], 2.82; in assay [4], 4.15.

`O=C(CP(=O)(O)OCc1ccccc1)c1nc2ccccc2s1`: the values for the pKi in assay [1], in assay [3] and in assay [4] were 3.77, 2.44 and 4.62, respectively.

In the case of `O=C(CP(=O)(O)Oc1ccccc1)c1ccccc1` [SODIUM PHENYL PHENACYLPHOSPHONATE], the figures for the pKi in assay [1], in assay [2] and in assay [4] were 2.98, less than 3.00 and 3.70, respectively.

Turning to `O=C(CP(=O)(O)OCc1ccccc1)c1ccccc1` [SODIUM BENZYL PHENACYLPHOSPHONATE], the pKi is 3.19 in assay [1], 3.82 in assay [3], less than 3.00 in assay [2] and 3.17 in assay [4].

For `O=C(CP(=O)(O)Oc1ccccc1)c1ccc(-c2ccccc2)cc1`, the pKi in assay [1] was 3.85; in assay [3], 3.04; in assay [4] it was 4.00.

As for `O=P(O)(CC(O)c1ccc(-c2ccccc2)cc1)OCc1ccccc1` (racemic), the pKi in assay [1] is 3.52; in assay [3], less than 3.00; in assay [4], 3.59.

For `O=C(CP(=O)(O)OCc1ccc(-c2ccccc2)cc1)c1ccc(-c2ccccc2)cc1`, the values for the pKi in assay [1], in assay [2] and in assay [4] were 5.22, 3.70 and 4.13, respectively.

Consider `O=C(CP(=O)(O)Oc1ccccc1)c1c(F)c(F)c(F)c(F)c1F` [SODIUM PHENYL PENTAFLUOROPHENACYLPHOSPHONATE], for which the negative logarithm of the Ki (pKi) in assay [1] was 3.42; in assay [3], 3.32; in assay [2] it was less than 3.00; in assay [4], 3.46.
